Measured values taken from US20020094993A1, “Compositions for repelling crawling insects” (priority 2000, published 2002).
Where two headings read alike, the source gives them in different places.

System: garden ants (Lasius niger)
Test: Repellent effect of active compounds on treated surfaces against ants
Format: in vivo
Parameters: pest or weed control: dose or concentration left out as unconfirmed
Description: Determination of a Repellent Effect of Active Compounds on Treated Surfaces against Ants
The tests are carried out in crystallizing dishes (Ø 30 cm, height 10 cm) using garden ants (Lasius niger). The walls of the dishes are treated with talc to prevent the test animals from escaping. The bottom of the dish is filled with a well-moistened layer of peat of a height of about 3-4 cm. At least 5 days before the beginning of the test, the dishes are populated with 300 ants which by the time the test starts will have built passages and hiding places. The dishes prepared in this manner can be used for several weeks as long as the substances examined are insecticide-free. The ants are fed with forest honey and crystalline sugar, and the feed is removed from the dishes during the tests.
Immediately before the start of the test, 2 glass plates (5×10 cm) are placed into the dish. One plate had been treated with active compound, the other remains untreated.
The activity of the ants can be monitored, for example, visually.
What is determined is the number of ants which, within a period of 15 minutes, cross the surface to be evaluated. The activity has to be so high that at least 100 contacts are achieved. If the activity is not high enough, the time for the test has to be extended accordingly. By evaluating the number of contacts on the treated and the untreated tile, a possible repellent action can be determined.
The results of the experiments with different compositions of repellent and additive are shown below. In the compositions, repellent and additive were mixed in a ratio of 100:100% by weight.

[1] = Lasius niger, 24 h, additive alone, after 1 day, read-out: % reduction of contacts after days
[2] = Lasius niger, 24 h, IR 3535/DEET table, after 1 day, read-out: % reduction of contacts after days
[3] = Lasius niger, 48 h, IR 3535/DEET table, after 2 days, read-out: % reduction of contacts after days
[4] = Lasius niger, 72 h, IR 3535/DEET table, after 3 days, read-out: % reduction of contacts after days
[5] = Lasius niger, 96 h, IR 3535/DEET table, after 4 days, read-out: % reduction of contacts after days
[6] = Lasius niger, 168 h, IR 3535/DEET table, after 7 days, read-out: % reduction of contacts after days
[7] = Lasius niger, 192 h, IR 3535/DEET table, after 8 days, read-out: % reduction of contacts after days
[8] = Lasius niger, 240 h, IR 3535/DEET table, after 10 days, read-out: % reduction of contacts after days

`COc1ccc(C=O)c(OC)c1` [2,4-Dimethoxybenzaldehyde] was tested. Which pest or weed control [1] did it give?
The pest or weed control was 0%.

How did the pest or weed control [2] turn out when `CCCCN(CCC(=O)OCC)C(C)=O` [Ex. 1] was run?
Its pest or weed control is 98%.

What about the pest or weed control [3] of the same compound?
The pest or weed control was 91%.

And the pest or weed control [4]?
Its pest or weed control is 29%.

What about the pest or weed control [5] of the same compound?
The pest or weed control was 0%.

What about the pest or weed control [6] of the same compound?
Its pest or weed control is 0%.

What about the pest or weed control [7] of the same compound?
The pest or weed control was 0%.

And the pest or weed control [8]?
The pest or weed control was 0%.

How did the pest or weed control [1] turn out when `OCC(O)CO` [Glycerol] was run?
The pest or weed control was 0%.

With `O=C(O)c1ccccc1O` [Salicylic acid] as the compound, how does the pest or weed control at 500 mg/m2 (Lasius niger, 24 h, read-out: % reduction of contacts after days) read?
The pest or weed control at 500 mg/m2 was 3%.

Which results are given for `COc1cc(C=O)ccc1O` [Vanillin]?
pest or weed control [1]: 63%; pest or weed control (Lasius niger, 48 h, additive alone, after 2 days, read-out: % reduction of contacts after days): 46%; pest or weed control (Lasius niger, 72 h, additive alone, after 3 days, read-out: % reduction of contacts after days): 65%; pest or weed control (Lasius niger, 96 h, additive alone, after 4 days, read-out: % reduction of contacts after days): 83%; pest or weed control (Lasius niger, 168 h, additive alone, after 7 days, read-out: % reduction of contacts after days): 51%; pest or weed control (Lasius niger, 192 h, additive alone, after 8 days, read-out: % reduction of contacts after days): 35%; pest or weed control (Lasius niger, 216 h, additive alone, after 9 days, read-out: % reduction of contacts after days): 0%; pest or weed control (Lasius niger, 240 h, additive alone, after 10 days, read-out: % reduction of contacts after days): 0%; repellent effect of the additive on the ants (additive alone): slightly repellent effect

Which results are given for `CCN(CC)C(=O)c1cccc(C)c1` [compound 5, N,N-diethyl-m-toluamide]?
pest or weed control [2]: 100%; pest or weed control [3]: 76%; pest or weed control [4]: 0%; pest or weed control [5]: 0%; pest or weed control [6]: 27%; pest or weed control [7]: 14%; pest or weed control [8]: 0%

For `O=Cc1ccc(O)cc1` [p-Hydroxybenzaldehyde], which pest or weed control [1] is on record?
The pest or weed control was 23%.

Which pest or weed control [1] does the source give for `O=C/C=C/c1ccccc1` [trans-Cinnamaldehyde] here?
Its pest or weed control is 0%.
